Assay results taken from US20230184746A1, “HIGH-SENSITIVITY DETECTION OF GPCR ACTIVITY AND USES THEREOF” (Firmenich Incorporated, priority 2020, published 2023).
“Also recorded” adds a separate entry of the source.

Tests used:
Format in all cases: cell-based
[1] = target: T1, human sweet taste receptor (hT1R2/hT1R3) (Homo sapiens, UniProt Q7RTX0+Q8TE23, C757R/I191V/I486V/R317G); experiment: Bias plotting analysis: DMR assay with R2/R3 U2OS cells vs FLIPR-calcium mobilization assay with R2/R3 U2OS cells expressing Gα15; settings: equimolar concentrations; data normalized to 1 mM sucralose; relative to other sweeteners
T1 construct: expressed in transfected cells
T1 sequence (Q8TE23 20-839 I191V/R317G/I486V): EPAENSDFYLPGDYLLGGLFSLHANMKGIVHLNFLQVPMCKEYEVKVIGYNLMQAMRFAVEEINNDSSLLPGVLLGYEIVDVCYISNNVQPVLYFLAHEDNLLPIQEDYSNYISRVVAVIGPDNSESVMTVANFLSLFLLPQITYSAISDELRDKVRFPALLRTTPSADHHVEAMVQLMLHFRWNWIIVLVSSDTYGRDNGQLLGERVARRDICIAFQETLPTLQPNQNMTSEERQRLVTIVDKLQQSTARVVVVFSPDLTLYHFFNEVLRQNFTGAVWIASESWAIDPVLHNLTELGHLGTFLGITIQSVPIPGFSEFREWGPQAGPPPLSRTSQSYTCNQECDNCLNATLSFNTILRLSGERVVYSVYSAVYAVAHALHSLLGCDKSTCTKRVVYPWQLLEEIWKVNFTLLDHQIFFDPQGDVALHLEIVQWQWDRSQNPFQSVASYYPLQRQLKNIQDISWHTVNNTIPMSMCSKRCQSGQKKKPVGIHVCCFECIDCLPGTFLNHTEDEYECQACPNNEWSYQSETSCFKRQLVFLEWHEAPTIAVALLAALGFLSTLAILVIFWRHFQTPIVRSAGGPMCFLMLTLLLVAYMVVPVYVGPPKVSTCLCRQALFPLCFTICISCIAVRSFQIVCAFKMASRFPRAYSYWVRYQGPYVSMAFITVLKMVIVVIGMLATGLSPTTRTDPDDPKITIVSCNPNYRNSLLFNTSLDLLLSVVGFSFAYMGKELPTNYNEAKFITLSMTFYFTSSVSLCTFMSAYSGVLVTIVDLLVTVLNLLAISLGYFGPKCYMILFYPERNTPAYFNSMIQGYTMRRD
T1 sequence (Q7RTX0 21-852 C757R): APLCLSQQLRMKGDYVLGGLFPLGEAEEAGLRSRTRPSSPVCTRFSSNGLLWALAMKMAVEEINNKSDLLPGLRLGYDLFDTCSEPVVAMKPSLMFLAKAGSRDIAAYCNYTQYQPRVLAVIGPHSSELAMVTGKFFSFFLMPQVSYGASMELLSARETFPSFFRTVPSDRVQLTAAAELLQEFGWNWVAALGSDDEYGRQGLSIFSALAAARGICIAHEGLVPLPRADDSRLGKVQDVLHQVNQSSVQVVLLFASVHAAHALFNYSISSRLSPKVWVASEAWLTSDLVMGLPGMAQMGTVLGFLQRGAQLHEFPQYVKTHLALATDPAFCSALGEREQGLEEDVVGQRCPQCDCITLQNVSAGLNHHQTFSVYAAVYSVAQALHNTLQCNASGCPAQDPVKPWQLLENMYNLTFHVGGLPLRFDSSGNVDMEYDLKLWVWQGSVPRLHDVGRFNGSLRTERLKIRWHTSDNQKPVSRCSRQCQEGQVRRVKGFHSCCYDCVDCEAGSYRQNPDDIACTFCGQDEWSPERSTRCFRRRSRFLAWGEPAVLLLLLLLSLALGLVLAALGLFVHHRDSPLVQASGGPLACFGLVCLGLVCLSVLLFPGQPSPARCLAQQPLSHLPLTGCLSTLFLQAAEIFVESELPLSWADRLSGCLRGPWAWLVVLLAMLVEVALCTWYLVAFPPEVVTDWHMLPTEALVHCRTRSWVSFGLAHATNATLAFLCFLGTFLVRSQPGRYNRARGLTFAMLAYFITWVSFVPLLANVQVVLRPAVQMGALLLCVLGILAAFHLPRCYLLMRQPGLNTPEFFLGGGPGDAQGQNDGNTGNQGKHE
Protocol: (§1) Untransfected U2OS cells were cultured at 37° C. and 5% CO2 in McCoy's 5A medium (modified, GIBCO#16600) supplemented with 10% fetal bovine serum and penicillin/streptomycin. Plasmids encoding hT1R2 in pEAK10-puromycin and hT1R3 in pcDNA3.1-zeocin were linearized and transfected into U2OS cells followed by dilution and double selection in growth medium plus 0.5 μg/m1puromycin and 100 μg/mlzeocin. Individual colonies were expanded and transiently transfected with a Gα6gust25 expression construct to identify functional clones using sucralose as the agonist in a Ca2+ imaging assay. […] The lidded Epic® 384 microplate and polypropylene compound plate (Corning) were loaded into the carousel of the Epic® reader, the target plate was washed with DMSO matched D-PBS using the Corning Epic® Liquid Handling Accessory (LHA) and equilibrated in 25 μL of DMSO matched D-PBS for 90 minutes. After recording the baseline activity for 5 to 8 minutes, 25 μL of 2× concentrated solution of sweetener, agonist or a mixture of agonist and modulator, diluted in D-PBS, was added using the LHA and the DMR responses which measures a shift in the resonance wavelength, were monitored for an additional 30 minutes. […]
(§2) In FIG. 2A known sweeteners and new agonists were evaluated in the DMR assay with R2/R3 U2OS cells using a dose-response analysis. […]

[2] = target: T1, human sweet taste receptor (hT1R2/hT1R3); experiment: DMR assay (Epic reader) with R2/R3 U2OS cells; settings: increasing concentrations, no overexpressed G protein
Protocol: as §1, §2

parental U2OS cells = experiment: DMR assay (Epic reader) with parental U2OS cells; settings: parental (untransfected) U2OS cells, increasing concentrations
Protocol: as §1, with “assay. […] (R2/R3 U2OS cells) were seeded on Epic®384 microplates (Corning) at a density of 16,000 cells/well in 40 pt of assay media using a multidrop (Thermo Scientific).” for “assay.”

SMILES | Bias between FLIPR assay and DMR (EPIC) assay [1] | DMR signal (shift in resonance wavelength) [2] | DMR signal (shift in resonance wavelength) (parental U2OS cells)
COC(=O)[C@H](Cc1ccccc1)NC(=O)[C@H](CC(=O)O)NCCC(C)(C)C [Neotame] | more active in the FLIPR assay; also recorded: clear bias for the FLIPR assay |  | 
CCCOc1ccc([N+](=O)[O-])cc1N [P-4000] | more active in the FLIPR assay; also recorded: clear bias for the FLIPR assay |  | 
OC[C@H]1O[C@H](O[C@]2(CCl)O[C@H](CCl)[C@@H](O)[C@@H]2O)[C@H](O)[C@@H](O)[C@H]1Cl [sucralose] |  | positive DMR signal | does not cause a comparable positive DMR signal
